Measurements reported in a compilation of properties of binary mixtures (doi:10.1016/j.jtice.2024.105468).

Experiment: xn = mol fraction of the nth substance listed
Conditions: 100 kPa

## COCCO + CCCC[n+]1ccn(C)c1.[Br-]
298.15 K, x2 = 0
  viscosity: 1.57 mPa·s
303.15 K, x2 = 0
  viscosity: 1.5 mPa·s
308.15 K, x2 = 0
  viscosity: 1.35 mPa·s
313.15 K, x2 = 0
  viscosity: 1.23 mPa·s

## CCCC[n+]1ccn(C)c1.[Br-] + COCCO
298.15 K, x1 = 0.1002
  viscosity: 10 mPa·s
298.15 K, x1 = 0.1999
  viscosity: 34 mPa·s
298.15 K, x1 = 0.3002
  viscosity: 74.5 mPa·s
298.15 K, x1 = 0.4
  viscosity: 124 mPa·s
298.15 K, x1 = 0.5
  viscosity: 179 mPa·s
298.15 K, x1 = 0.5999
  viscosity: 247 mPa·s
298.15 K, x1 = 0.8
  viscosity: 527 mPa·s
298.15 K, x1 = 0.8975
  viscosity: 843 mPa·s
298.15 K, x1 = 1
  viscosity: 1451 mPa·s
303.15 K, x1 = 0.1002
  viscosity: 6.65 mPa·s
303.15 K, x1 = 0.1999
  viscosity: 19.6 mPa·s
303.15 K, x1 = 0.3002
  viscosity: 41.1 mPa·s
303.15 K, x1 = 0.4
  viscosity: 68.9 mPa·s
303.15 K, x1 = 0.5999
  viscosity: 139 mPa·s
303.15 K, x1 = 0.7002
  viscosity: 192 mPa·s
303.15 K, x1 = 0.8
  viscosity: 280 mPa·s
303.15 K, x1 = 0.8975
  viscosity: 447 mPa·s
303.15 K, x1 = 1
  viscosity: 837 mPa·s
308.15 K, x1 = 0.1002
  viscosity: 5.03 mPa·s
308.15 K, x1 = 0.1999
  viscosity: 13 mPa·s
308.15 K, x1 = 0.3002
  viscosity: 26.9 mPa·s
308.15 K, x1 = 0.5
  viscosity: 63.6 mPa·s
308.15 K, x1 = 0.5999
  viscosity: 86.3 mPa·s
308.15 K, x1 = 0.7002
  viscosity: 114 mPa·s
308.15 K, x1 = 0.8
  viscosity: 162 mPa·s
308.15 K, x1 = 0.8975
  viscosity: 256 mPa·s
308.15 K, x1 = 1
  viscosity: 506 mPa·s
313.15 K, x1 = 0.1002
  viscosity: 3.71 mPa·s
313.15 K, x1 = 0.1999
  viscosity: 8.79 mPa·s
313.15 K, x1 = 0.3002
  viscosity: 17.5 mPa·s
313.15 K, x1 = 0.5999
  viscosity: 55.5 mPa·s
313.15 K, x1 = 0.8
  viscosity: 106 mPa·s
313.15 K, x1 = 0.8975
  viscosity: 167 mPa·s
313.15 K, x1 = 1
  viscosity: 330 mPa·s
